{"source": "patent US20130123319A1", "about": "“Medthod of Treating a systemic inflammatory disorder and damaged internal tissues” (priority 2011, published 2013)", "key": {"Behcet's Disease": {"system": "Behcet's Disease", "assay": "Case reports: patients with exacerbation of Behcet's Disease", "format": "in vivo, human", "excerpt": "Behcet's Syndrome is a worldwide disorder that seems to be more severe and more common along the Silk Route and in Japan.\nThis happened back in the year 2000."}, "[1]": {"conditions": "in vivo, cited from earlier work"}, "bacteria": {"system": "bacteria", "conditions": "virus specimens; more potent when mixed with serum; cited from earlier work"}, "[2]": {"system": "Myasthenia Gravis without Thymoma", "assay": "Case report: patient with Myasthenia Gravis given intravenous nutritional infusion", "format": "in vivo, human", "conditions": "day 5 of the hospitalization", "method": "In 1990 I began to treat a patient with Myasthenia Gravis without Thymoma, an autoimmune disorder, which causes a decrease in the availability of Acetylcholine at the muscle endplate. Pyridostigmine, which increases the amount of Acetylcholine available at the endplate, and later Prednisone, was added for control of their myasthenia. The later acts by reducing the inflammatory response at the muscle endplate. In 1992 they underwent a bowel operation for correction of an enterorectal fistula and was unable to eat orally or gastrically to be fed. They were put on the standardized intravenous nutritional protocol in the hospital in which I worked, which included 3% Glycerin plus 3% Amino Acids, (see Table 1) at a rate of 100 ccs/hour. This was given for 6 days. There was no change in their Myasthenia Gravis. Twelve days later they were readmitted with abdominal pain and the same IV nutrition was administered. On day 5 of the hospitalization they developed a cholinergic crisis, which was relieved by Atropine. Pyridostigmine and Prednisone were discontinued. […] They were readmitted to the hospital 4 years later because of difficulty swallowing and again was given intravenous 3% Glycerin and 3% Amino Acids. […]"}}, "note": "Like-named read-outs stand apart in the source and are kept apart here."}
{"smiles": "OCC(O)CO", "note": "[Glycerin]", "values": [{"measurement": "rate of improvement in autoimmune diseases, especially Behcet's Disease", "setting": "Behcet's Disease; inventor's review of the cases", "value": "quick or rapid improvement"}, {"measurement": "central nervous system involvement", "setting": "Behcet's Disease; one patient with neuro-Behcet's disease", "value": "improved central nervous system involvement rapidly"}, {"measurement": "toxicity", "setting": "[1]", "value": "low toxicity"}, {"measurement": "toxicity", "setting": "[1]; listed as Sterilized Glycerin", "value": "non-toxic"}, {"measurement": "bacteria in the specimens", "setting": "bacteria", "value": "reduced bacteria"}]}
{"smiles": "C[C@]12C=CC(=O)C=C1CC[C@@H]1[C@@H]2C(=O)C[C@@]2(C)[C@H]1CC[C@]2(O)C(=O)CO", "note": "[Prednisone, reference compound]", "values": [{"measurement": "response of Behcet's exacerbation", "setting": "Behcet's Disease; eleven patients, high dose", "value": "failed to respond"}, {"measurement": "response of Behcet's exacerbations", "setting": "Behcet's Disease; over 20 patients since 2000, high doses", "value": "usually responded"}]}
{"smiles": "CN1[C@@H]2CC[C@H]1C[C@@H](OC(=O)C(CO)c1ccccc1)C2", "note": "(some centres unmarked) [Atropine]", "values": [{"measurement": "cholinergic crisis", "setting": "[2]", "value": "relieved"}]}
